# Results taken from the supplement of paper PMC10307832.
# Compound: CC(C)C[C@@H](C(=O)N[C@H](C(=O)OC1CCCC1)c1ccccc1)[C@H](O)C(=O)NO [Tosedostat] + CC(=O)Nc1cccc(-n2c(=O)n(C3CC3)c(=O)c3c(Nc4ccc(I)cc4F)n(C)c(=O)c(C)c32)c1 [Trametinib] (partner 0.02 µM)
# Test: relative viability (nuclei count vs DMSO), 5 days (fraction); higher = more cells survive
# Details: first compound 0.02 µM
# In short: (§1)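 Medians of duplicate plates are given as relative viability. That measure is the nuclei count in treated wells divided by the count in vehicle wells. Counts were taken on 4× images of lung cancer cell lines in 1536-well plates, 5 days after pin-tool dosing the day after seeding with one drug alone or a fixed anchor-drug dose plus five library-drug doses (not always all listed) in √10 steps.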
row,Cell Line,relative viability
1,NCI-H1355,0.344
2,SW 1573,0.59
3,LCLC-103H,0.678
4,NCI-H727,0.398
5,NCI-H2405,0.652
6,EMC-BAC-2,0.942
7,NCI-H23,0.426
8,HCC-366,0.36
9,NCI-H1755,0.782
10,NCI-H838,0.559
11,LK-2,0.903
12,NCI-H2347,0.297
13,NCI-H2342,0.808
14,SK-MES-1,0.556
15,H3255,0.61
16,COR-L23,0.698
17,COR-L 105,0.493
18,LU99A,0.51
19,ChaGo-K-1,0.903
20,NCI-H2170,0.945
21,NCI-H460,0.157
22,SW 900,0.696
23,NCI-H1648,0.417
24,NCI-H1395,0.968
25,CAL-12T,0.393
26,NCI-H2228,0.666
27,NCI-H1793,0.507
28,NCI-H1944,0.422
29,NCI-H358,0.144

# Same assay, conditions: first compound 0.06325 µM
row,Cell Line,relative viability
1,NCI-H522,0.796
2,SK-LU-1,0.529
3,NCI-H1792,0.417
4,NCI-H2087,0.17
5,NCI-H596,0.848
6,NCI-H1355,0.388
7,SW 1573,0.537
8,LCLC-103H,0.682
9,NCI-H727,0.37
10,NCI-H2405,0.657
11,EMC-BAC-2,0.849
12,NCI-H23,0.329
13,HCC-366,0.358
14,NCI-H1755,0.837
15,NCI-H838,0.446
16,LK-2,0.819
17,NCI-H2347,0.295

row,Cell Line,relative viability
1,NCI-H2342,0.797
2,SK-MES-1,0.536
3,H3255,0.582
4,COR-L23,0.594
5,COR-L 105,0.431
6,LU99A,0.47
7,ChaGo-K-1,0.862
8,NCI-H2170,0.971
9,NCI-H460,0.197
10,SW 900,0.754
11,NCI-H1648,0.447
12,NCI-H1395,1.07
13,CAL-12T,0.364
14,NCI-H2228,0.57
15,NCI-H1793,0.49
16,NCI-H1944,0.396
17,NCI-H358,0.126

# Same assay, conditions: first compound 0.2 µM
row,Cell Line,relative viability
1,NCI-H522,0.752
2,SK-LU-1,0.597
3,NCI-H1792,0.4
4,NCI-H2087,0.172
5,NCI-H596,0.861
6,NCI-H1355,0.44
7,SW 1573,0.553
8,LCLC-103H,0.713
9,NCI-H727,0.413
10,NCI-H2405,0.79
11,EMC-BAC-2,0.83
12,NCI-H23,0.359
13,HCC-366,0.322
14,NCI-H1755,0.813
15,NCI-H838,0.52
16,LK-2,0.614
17,NCI-H2347,0.33

row,Cell Line,relative viability
1,NCI-H2342,0.93
2,SK-MES-1,0.625
3,H3255,0.528
4,COR-L23,0.587
5,COR-L 105,0.422
6,LU99A,0.567
7,ChaGo-K-1,0.895
8,NCI-H2170,0.925
9,NCI-H460,0.204
10,SW 900,0.777
11,NCI-H1648,0.476
12,NCI-H1395,1.12
13,CAL-12T,0.339
14,NCI-H2228,0.466
15,NCI-H1793,0.445
16,NCI-H1944,0.4
17,NCI-H358,0.13

# Same assay, conditions: first compound 0.6325 µM
row,Cell Line,relative viability
1,NCI-H522,0.895
2,SK-LU-1,0.447
3,NCI-H1792,0.42
4,NCI-H2087,0.228
5,NCI-H596,0.901
6,NCI-H1355,0.386
7,SW 1573,0.472
8,LCLC-103H,0.721
9,NCI-H727,0.412
10,NCI-H2405,0.699
11,EMC-BAC-2,0.727
12,NCI-H23,0.321
13,HCC-366,0.311
14,NCI-H1755,0.869
15,NCI-H838,0.596
16,LK-2,0.628
17,NCI-H2347,0.262

row,Cell Line,relative viability
1,NCI-H2342,0.903
2,SK-MES-1,0.776
3,H3255,0.608
4,COR-L23,0.491
5,COR-L 105,0.476
6,LU99A,0.544
7,ChaGo-K-1,0.867
8,NCI-H2170,0.894
9,NCI-H460,0.181
10,SW 900,0.639
11,NCI-H1648,0.477
12,NCI-H1395,1.05
13,CAL-12T,0.394
14,NCI-H2228,0.534
15,NCI-H1793,0.437
16,NCI-H1944,0.395
17,NCI-H358,0.113

# Same assay, conditions: first compound 2 µM
row,Cell Line,relative viability
1,NCI-H522,0.78
2,SK-LU-1,0.511
3,NCI-H1792,0.479
4,NCI-H2087,0.132
5,NCI-H596,0.803
6,NCI-H1355,0.406
7,SW 1573,0.505
8,LCLC-103H,0.779
9,NCI-H727,0.376
10,NCI-H2405,0.614
11,EMC-BAC-2,0.675
12,NCI-H23,0.284
13,HCC-366,0.374
14,NCI-H1755,0.744
15,NCI-H838,0.59
16,LK-2,0.78
17,NCI-H2347,0.321

row,Cell Line,relative viability
1,NCI-H2342,0.919
2,SK-MES-1,0.782
3,H3255,0.599
4,COR-L23,0.508
5,COR-L 105,0.369
6,LU99A,0.47
7,ChaGo-K-1,0.645
8,NCI-H2170,0.915
9,NCI-H460,0.217
10,SW 900,0.609
11,NCI-H1648,0.336
12,NCI-H1395,1.06
13,CAL-12T,0.325
14,NCI-H2228,0.421
15,NCI-H1793,0.448
16,NCI-H1944,0.422
17,NCI-H358,0.133

# Compound: CC(C)C[C@@H](C(=O)N[C@H](C(=O)OC1CCCC1)c1ccccc1)[C@H](O)C(=O)NO [Tosedostat] + CC(C)C[C@H](NC(=O)[C@H](Cc1ccccc1)NC(=O)c1cnccn1)B(O)O [Bortezomib] (partner 0.002 µM)
# Test: as above
# Details: first compound 0.02 µM
# In short: as §1
row,Cell Line,relative viability
1,SK-LU-1,1.33
2,NCI-H1703,0.447
3,EBC-1,0.538
4,NCI-H1792,1.01
5,NCI-H2087,0.902
6,NCI-H596,1.32
7,NCI-H1355,1.2
8,SW 1573,1.1
9,LCLC-103H,1.1
10,NCI-H727,0.884
11,NCI-H2405,1.04
12,EMC-BAC-2,1.13
13,NCI-H23,1.11
14,Calu-6,1.13
15,HCC-366,1.05
16,NCI-H1755,0.963
17,NCI-H838,0.82
18,NCI-H2347,1.25
19,H3255,0.883
20,COR-L23,1.22
21,COR-L 105,0.733
22,IA-LM,0.854
23,LU99A,1.11
24,ChaGo-K-1,1.15
25,NCI-H460,1.14
26,NCI-H1299,1.05
27,CAL-12T,0.987
28,NCI-H1563,0.924
29,NCI-H2228,1.33
30,ABC-1,0.289

# Same assay, conditions: first compound 0.06325 µM
row,Cell Line,relative viability
1,SK-LU-1,1.14
2,NCI-H1703,0.297
3,EBC-1,0.516
4,NCI-H1792,0.991
5,NCI-H2087,0.795
6,NCI-H596,1.19
7,NCI-H1355,1.14
8,SW 1573,0.96
9,LCLC-103H,0.947
10,NCI-H727,0.771
11,NCI-H2405,0.949
12,EMC-BAC-2,1
13,NCI-H23,0.959
14,Calu-6,0.932
15,HCC-366,1.03
16,NCI-H1755,0.896
17,NCI-H838,0.852
18,NCI-H2347,1.36
19,H3255,0.927
20,COR-L23,0.918
21,COR-L 105,0.605
22,IA-LM,0.731
23,LU99A,1.04
24,ChaGo-K-1,1.03
25,NCI-H460,0.898
26,NCI-H1299,1
27,CAL-12T,0.897
28,NCI-H1563,0.818
29,NCI-H2228,0.948
30,ABC-1,0.344

# Same assay, conditions: first compound 0.2 µM
row,Cell Line,relative viability
1,SK-LU-1,1.15
2,NCI-H1703,0.235
3,EBC-1,0.505
4,NCI-H1792,0.934
5,NCI-H2087,0.802
6,NCI-H596,1
7,NCI-H1355,1.09
8,SW 1573,0.938
9,LCLC-103H,1.05
10,NCI-H727,0.804
11,NCI-H2405,1
12,EMC-BAC-2,1.07
13,NCI-H23,0.846
14,Calu-6,0.943
15,HCC-366,1.03
16,NCI-H1755,0.928
17,NCI-H838,0.646
18,NCI-H2347,1.35
19,H3255,0.86
20,COR-L23,0.914
21,COR-L 105,0.807
22,IA-LM,0.814
23,LU99A,1.08
24,ChaGo-K-1,0.938
25,NCI-H460,1.09
26,NCI-H1299,1.01
27,CAL-12T,0.966
28,NCI-H1563,0.943
29,NCI-H2228,0.827
30,ABC-1,0.328

# Same assay, conditions: first compound 0.6325 µM
row,Cell Line,relative viability
1,SK-LU-1,0.921
2,NCI-H1703,0.221
3,EBC-1,0.405
4,NCI-H1792,0.952
5,NCI-H2087,0.703
6,NCI-H596,1.12
7,NCI-H1355,0.987
8,SW 1573,0.709
9,LCLC-103H,1.25
10,NCI-H727,0.613
11,NCI-H2405,0.937
12,EMC-BAC-2,0.944
13,NCI-H23,0.687
14,Calu-6,0.851
15,HCC-366,1.07
16,NCI-H1755,0.887
17,NCI-H838,0.918
18,NCI-H2347,1.05
19,H3255,0.621
20,COR-L23,0.969
21,COR-L 105,0.781
22,IA-LM,0.848
23,LU99A,0.94
24,ChaGo-K-1,0.962
25,NCI-H460,0.926
26,NCI-H1299,0.965
27,CAL-12T,0.85
28,NCI-H1563,0.948
29,NCI-H2228,0.896
30,ABC-1,0.274

# Same assay, conditions: first compound 2 µM
row,Cell Line,relative viability
1,SK-LU-1,0.718
2,NCI-H1703,0.301
3,EBC-1,0.334
4,NCI-H1792,1
5,NCI-H2087,0.688
6,NCI-H596,1.04
7,NCI-H1355,1.07
8,SW 1573,0.949
9,LCLC-103H,1.06
10,NCI-H727,0.613
11,NCI-H2405,0.883
12,EMC-BAC-2,0.985
13,NCI-H23,0.463
14,Calu-6,0.666
15,HCC-366,1.04
16,NCI-H1755,0.845
17,NCI-H838,1.1
18,NCI-H2347,0.694
19,H3255,0.648
20,COR-L23,1.1
21,COR-L 105,0.542
22,IA-LM,0.735
23,LU99A,0.761
24,ChaGo-K-1,0.78
25,NCI-H460,1.32
26,NCI-H1299,0.893
27,CAL-12T,0.549
28,NCI-H1563,0.8
29,NCI-H2228,0.744
30,ABC-1,0.306
